Experimental data reported in patent US8637523B2, “Compounds for the reduction of beta-amyloid production” (Bristol-Myers Squibb Company, priority 2010, dated 2014).

test system: Aβ42; experiment: Cellular assay for inhibition of Aβ1-42 production (H4 APP751 SWE clone 8.20); assay type: cell-based; conditions: 19 h, H4 APP751 SWE clone 8.20 cells, 19 h incubation; read-out: Activity Rating (Aβ42 cellular IC50), class symbol
Experimental: Cellular Assays for Inhibition of Aβ1-40 and Aβ1-42 Production
H4 cells stably transfected with APP751 containing the Swedish mutation (H4 APP751 SWE clone 8.20, developed at BMS) were maintained in log phase through twice weekly passage at a 1:20 split. […] Following incubation for 19 h in 5% CO2 at 37° C., plates were briefly centrifuged (1000 rpm, 5 min). A 10 μl aliquot from each well was transferred to a second assay plate (Costar 3709) for Aβ40 measurements. Antibody cocktails were freshly prepared by dilution into 40 mM Tris-HCl (pH 7.4) with 0.2% BSA and added to assay plates. For Aβ42 measurements, antibodies specific for the Aβ42 neoepitope (565, developed at BMS; conjugated to the Wallac reagent (Perkin Elmer)) and the N-terminal sequence of Aβ peptide (26D6, developed at SIBIA; conjugated to APC (Perkin Elmer)) were mixed and 20 μl of the mixture was added to each well of the incubated cell plate yielding a final concentration of 0.8 ng/well 565 and 75 ng/well 26D6. For the Aβ40 measurements, antibodies specific for the Aβ40 neoepitope (TSD, developed at BMS; conjugated to the Wallac reagent (Perkin Elmer)) and 26D6 as described above were mixed and 20 μl of the mixture was added to the 10 μl aliquots which had been removed previously from the cell plate yielding a final concentration of 1.6 ng/well TSD and 17.5 ng/well 26D6. Assay plates containing antibodies were sealed with aluminum foil and incubated overnight at 4° C. Signal was determined using a Viewlux counter (Perkin Elmer) and IC50 values determined using curve fitting in CurveMaster (Excel Fit based).

Molecule | IC50 [µM]
CN1C/C=C\COc2cc(ccc2-n2cnc(Cl)c2)Nc2nc3c(c1n2)CCC3c1ccc(F)cc1F (stereo not shown) [Example 18A, (11Z)-7-(4-chloro-1H-imidazol-1-yl)-18-(2,4-difluorophenyl)-14-methyl-10,13,14,16,17,18-hexahydro-15,2-(azeno)-8,4-(metheno)cyclopenta[h][1,6,10,12]oxatriazacycloheptadecine] | < 0.01
CN1CCCCOc2cc(ccc2-n2cnc(Cl)c2)Nc2nc3c(c1n2)CCC3c1ccc(F)cc1F (stereo not shown) [Example 19A, 7-(4-chloro-1H-imidazol-1-yl)-18-(2,4-difluorophenyl)-14-methyl-10,11,12,13,14,16,17,18-octahydro-15,2-(azeno)-8,4-(metheno)cyclopenta[h][1,6,10,12]oxatriazacycloheptadecine] | < 0.01
CC1C/C=C/COc2cc(ccc2-n2cnc(Cl)c2)Nc2nc(c3c(n2)C(c2ccccc2)CC3)N1 (stereo not shown) [Example 7B, (11E)-7-(4-chloro-1H-imidazol-1-yl)-14-methyl-19-phenyl-3,10,13,14,15,17,18,19-octahydro-2,16-(azeno)-8,4-(metheno)cyclopenta[j][1,7,9,13]oxatriazacyclooctadecine] | 0.1 to 1
Clc1cn(-c2ccc3cc2OC/C=C/CCNc2nc(nc4c2CCC4c2ccccc2)N3)cn1 (stereo not shown) [Example 5B, (11E)-7-(4-chloro-1H-imidazol-1-yl)-19-phenyl-3,10,13,14,15,17,18,19-octahydro-2,16-(azeno)-8,4-(metheno)cyclopenta[j][1,7,9,13]oxatriazacyclooctadecine] | 0.01 to 0.1

Further lines, results first:

IC50 [µM] | Molecule
0.01 to 0.1 | Cc1ncnn1-c1ccc2cc1OC/C=C\CN(C)c1nc(nc3c1CCC3c1ccccc1)N2 (stereo not shown) [Example 41B, (11Z)-14-methyl-7-(5-methyl-1H-1,2,4-triazol-1-yl)-18-phenyl-10,13,14,16,17,18-hexahydro-15,2-(azeno)-8,4-(metheno)cyclopenta[h][1,6,10,12]oxatriazacycloheptadecine]
0.01 to 0.1 | Cc1ncn(-c2ccc3cc2OCCCCN(C)c2nc(nc4c2CCC4c2ccccc2)N3)n1 (stereo not shown) [Example 50B, 14-methyl-7-(3-methyl-1H-1,2,4-triazol-1-yl)-18-phenyl-10,11,12,13,14,16,17,18-octahydro-15,2-(azeno)-8,4-(metheno)cyclopenta[h][1,6,10,12]oxatriazacycloheptadecine]
< 0.01 | Cc1ncn(-c2ccc3cc2OCCCCCc2nc(nc4c2CCC4c2ccccc2)N3)n1 (stereo not shown) [Example 62A, 7-(3-methyl-1H-1,2,4-triazol-1-yl)-18-phenyl-10,11,12,13,14,16,17,18-octahydro-15,2-(azeno)-8,4-(metheno)cyclopenta[h][1,10,12]oxadiazacycloheptadecine]

same assay, conditions: 19 h, H4 APP751 SWE clone 8.20 cells, 19 h incubation; unit inferred; read-out: Activity Rating (Aβ42 cellular IC50), numeric value

IC50 [µM] | Molecule
0.011 | CN1CCCOc2cc(ccc2-n2cnc(Cl)c2)Nc2nc3c(c1n2)CCC3c1ccc(F)cc1F (stereo not shown) [Example 20B, 7-(4-chloro-1H-imidazol-1-yl)-17-(2,4-difluorophenyl)-13-methyl-11,12,13,15,16,17-hexahydro-10H-14,2-(azeno)-8,4-(metheno)cyclopenta[g][1,5,9,11]oxatriazacyclohexadecine]
0.017 | Clc1cn(-c2ccc3cc2OCCCNc2nc(nc4c2CCC4c2ccccc2)N3)cn1 (stereo not shown) [Example 9B, 7-(4-chloro-1H-imidazol-1-yl)-17-phenyl-11,12,13,15,16,17-hexahydro-10H-14,2-(azeno)-8,4-(metheno)cyclopenta[g][1,5,9,11]oxatriazacyclohexadecine]
0.037 | N#Cc1ccc2cc1OCCCNc1nc(nc3c1CCC3c1ccc(F)cc1F)N2 (stereo not shown) [Example 33B, 7-cyano-17-(2,4-difluorophenyl)-11,12,13,15,16,17-hexahydro-10H-14,2-(azeno)-8,4-(metheno)cyclopenta[g][1,5,9,14]oxatriazacyclohexadecine]

same assay, conditions: H4 APP751 SWE clone 8.20 cells, 19 h incubation; read-out: Activity Rating (Aβ42 cellular IC50), class symbol

Molecule | IC50 [µM]
CN1CC=CCOc2cc(ccc2-n2cnc(Cl)c2)Nc2nc3c(c1n2)CCC3c1ccccc1 (stereo not shown) [Example 4B, (11E)-7-(4-chloro-1H-imidazol-1-yl)-14-methyl-18-phenyl-10,13,14,16,17,18-hexahydro-15,2-(azeno)-8,4-(metheno)cyclopenta[h][1,6,10,12]oxatriazacycloheptadecine] | 0.01 to 0.1
CN1CC=CCOc2cc(ccc2-n2cnc(Cl)c2)Nc2nc3c(c1n2)CCC3c1ccccc1 (stereo not shown) [Example 3B, (11Z)-7-(4-chloro-1H-imidazol-1-yl)-14-methyl-18-phenyl-10,13,14,16,17,18-hexahydro-15,2-(azeno)-8,4-(metheno)cyclopenta[h][1,6,10,12]oxatriazacycloheptadecine] | 0.01 to 0.1
Clc1cn(-c2ccc3cc2OCC=CCCc2nc(nc4c2CCC4c2ccccc2)N3)cn1 (stereo not shown) [Example 17B, (11E)-7-(4-chloro-1H-imidazol-1-yl)-18-phenyl-10,13,14,16,17,18-hexahydro-15,2-(azeno)-8,4-(metheno)cyclopenta[h][1,10,12]oxadiazacycloheptadecine] | 0.01 to 0.1
Fc1ccc(C2CCc3c4nc(nc32)Nc2ccc(-n3cnc(Cl)c3)c(c2)OCC=CCN4)c(F)c1 (stereo not shown) [Example 14B, (11Z)-7-(4-chloro-1H-imidazol-1-yl)-18-(2,4-difluorophenyl)-10,13,14,16,17,18-hexahydro-15,2-(azeno)-8,4-(metheno)cyclopenta[h][1,6,10,12]oxatriazacycloheptadecine] | 0.01 to 0.1

The remaining lines, values ahead:

IC50 [µM] | Molecule
< 0.01 | (11E)-7-(3-methyl-1H-1,2,4-triazol-1-yl)-18-phenyl-10,13,14,16,17,18-hexahydro-15,2-(azeno)-8,4-(metheno)cyclopenta[h][1,6,10,12]oxatriazacycloheptadecine [Example 40A]
0.01 to 0.1 | Cc1ncn(-c2ccc3cc2OCC=CCNc2nc(nc4c2CCC4c2ccccc2)N3)n1 (stereo not shown) [Example 39B, (11Z)-7-(3-methyl-1H-1,2,4-triazol-1-yl)-18-phenyl-10,13,14,16,17,18-hexahydro-15,2-(azeno)-8,4-(metheno)cyclopenta[h][1,6,10,12]oxatriazacycloheptadecine]
0.01 to 0.1 | CN1CC=CCOc2cc(ccc2C#N)Nc2nc3c(c1n2)CCC3c1ccccc1 (stereo not shown) [Example 30B, (11E)-7-cyano-14-methyl-18-phenyl-10,13,14,16,17,18-hexahydro-15,2-(azeno)-8,4-(metheno)cyclopenta[h][1,6,10,12]oxatriazacycloheptadecine]
0.01 to 0.1 | (11E)-7-(4-chloro-1H-imidazol-1-yl)-18-phenyl-10,13,14,16,17,18-hexahydro-15,2-(azeno)-8,4-(metheno)cyclopenta[h][1,6,10,12]oxatriazacycloheptadecine [Example 2A]
< 0.01 | (11Z)-18-(2,4-difluorophenyl)-7-(3-methyl-1H-1,2,4-triazol-1-yl)-10,13,14,16,17,18-hexahydro-15,2-(azeno)-8,4-(metheno)cyclopenta[h][1,6,10,12]oxatriazacycloheptadecine [Example 51A]

same assay, conditions: H4 APP751 SWE clone 8.20 cells, 19 h incubation; unit inferred; read-out: Activity Rating (Aβ42 cellular IC50), numeric value

IC50 [µM] | Molecule
0.025 | (11E)-7-(3-methyl-1H-1,2,4-triazol-1-yl)-18-phenyl-10,13,14,16,17,18-hexahydro-15,2-(azeno)-8,4-(metheno)cyclopenta[h][1,6,10,12]oxatriazacycloheptadecine [Example 40B]
0.043 | N#Cc1ccc2cc1OCC=CCNc1nc(nc3c1CCC3c1ccc(F)cc1F)N2 (stereo not shown) [Example 24B, (11Z)-7-cyano-18-(2,4-difluorophenyl)-10,13,14,16,17,18-hexahydro-15,2-(azeno)-8,4-(metheno)cyclopenta[h][1,6,10,12]oxatriazacycloheptadecine]
0.023 | Fc1ccc(C2CCc3c4nc(nc32)Nc2ccc(-n3cnc(Cl)c3)c(c2)OCC=CCN4)c(F)c1 (stereo not shown) [Example 15B, (11E)-7-(4-chloro-1H-imidazol-1-yl)-18-(2,4-difluorophenyl)-10,13,14,16,17,18-hexahydro-15,2-(azeno)-8,4-(metheno)cyclopenta[h][1,6,10,12]oxatriazacycloheptadecine]
0.0039 | (11Z)-7-(4-chloro-1H-imidazol-1-yl)-18-phenyl-10,13,14,16,17,18-hexahydro-15,2-(azeno)-8,4-(metheno)cyclopenta[h][1,6,10,12]oxatriazacycloheptadecine [Example 1A]
0.16 | CC1(c2ccc(F)cc2)CCc2c3nc(nc21)Nc1ccc(C#N)c(c1)OC/C=C\CN3 (stereo not shown) [Example 68, (11E)-7-cyano-18-(4-fluorophenyl)-18-methyl-10,13,14,16,17,18-hexahydro-15,2-(azeno)-8,4-(metheno)cyclopenta[h][1,6,10,12]oxatriazacycloheptadecine]
0.0078 | N#Cc1ccc2cc1OCC=CCNc1nc(nc3c1CCC3c1ccccc1)N2 (stereo not shown) [Example 21A, (11Z)-7-cyano-18-phenyl-10,13,14,16,17,18-hexahydro-15,2-(azeno)-8,4-(metheno)cyclopenta[h][1,6,10,12]oxatriazacycloheptadecine]
